Measured values taken from ChEMBL document CHEMBL5034014, “Melanocortin 1 Receptor Agonists Based on a Bivalent, Bicyclic Peptide Framework” (J Med Chem, 2021).
Bridge positions count the residues as written; N and C are the ends. Square brackets hold non-standard residues; d marks the D form. Peptide text beside a SMILES is read from it. NMeW = CN[C@@H](Cc1c[nH]c2ccccc12)C(=O)O; NMeR = CN[C@@H](CCCNC(=N)N)C(=O)O

Key:
[1] = target: T1, Melanocyte-stimulating hormone receptor (Homo sapiens, UniProt Q01726); assay: Agonist activity at human melanocortin receptor 1 expressed in human T-Rex-293 cells assessed as stimulation of intracellular cAMP accumulation incubated for 45 mins by LANCE cAMP assay; type: functional, cell-based
T1 sequence (Q01726 whole entry): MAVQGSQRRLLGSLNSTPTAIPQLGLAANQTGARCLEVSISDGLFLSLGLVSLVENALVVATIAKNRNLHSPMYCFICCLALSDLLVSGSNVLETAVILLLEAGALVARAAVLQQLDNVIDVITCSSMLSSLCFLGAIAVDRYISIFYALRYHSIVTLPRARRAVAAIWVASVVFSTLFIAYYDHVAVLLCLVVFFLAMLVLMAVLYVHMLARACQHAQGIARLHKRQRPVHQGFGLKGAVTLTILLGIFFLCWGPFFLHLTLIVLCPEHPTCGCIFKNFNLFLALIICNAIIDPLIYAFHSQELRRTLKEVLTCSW

Melanocortin receptor 3 [2] = target: T2, Melanocortin receptor 3 (Homo sapiens, UniProt P41968); assay: Agonist activity at human melanocortin receptor 3 expressed in human T-REx-293 cells assessed as stimulation of intracellular cAMP accumulation incubated for 45 mins by LANCE cAMP assay; type: functional, cell-based
T2 sequence (P41968 whole entry): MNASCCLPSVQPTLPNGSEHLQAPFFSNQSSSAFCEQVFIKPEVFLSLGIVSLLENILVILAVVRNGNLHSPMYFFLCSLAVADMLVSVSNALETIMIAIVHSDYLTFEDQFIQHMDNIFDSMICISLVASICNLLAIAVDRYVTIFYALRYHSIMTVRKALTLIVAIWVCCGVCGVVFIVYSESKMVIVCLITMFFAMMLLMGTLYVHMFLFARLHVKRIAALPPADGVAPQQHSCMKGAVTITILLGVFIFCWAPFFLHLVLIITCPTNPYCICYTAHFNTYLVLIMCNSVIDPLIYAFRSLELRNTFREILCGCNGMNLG

[3] = target: T1, Melanocyte-stimulating hormone receptor; assay: Displacement of [125I]-NDP-alpha-MSH from human MC1R expressed in HEK2936E cell membrane measured after 16-23 hrs by 1450 microbeta trilux scintillation proximity assay; type: cell membranes
Melanocortin receptor 4 [4] = target: T3, Melanocortin receptor 4 (Homo sapiens, UniProt P32245); assay: Agonist activity at human melanocortin receptor 4 expressed in human T-REx-293 cells using high doxycycline assessed as stimulation of intracellular cAMP accumulation incubated for 45 mins by LANCE cAMP assay; type: functional
T3 sequence (P32245 whole entry): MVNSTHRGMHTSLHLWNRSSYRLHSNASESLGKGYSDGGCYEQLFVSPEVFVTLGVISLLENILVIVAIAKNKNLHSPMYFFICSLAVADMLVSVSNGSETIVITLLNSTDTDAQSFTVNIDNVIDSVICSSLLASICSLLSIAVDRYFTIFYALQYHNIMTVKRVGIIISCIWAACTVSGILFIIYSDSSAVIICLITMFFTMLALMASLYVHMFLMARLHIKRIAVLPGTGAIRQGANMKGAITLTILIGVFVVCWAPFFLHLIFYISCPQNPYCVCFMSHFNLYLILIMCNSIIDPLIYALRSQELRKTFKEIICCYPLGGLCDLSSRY

Melanocortin receptor 4 [5] = target: T3, Melanocortin receptor 4; assay: Displacement of [125I]-NDP-alpha-MSH from human MC4R expressed in HEK2936E cell membrane measured after 16-23 hrs by 1450 microbeta trilux scintillation proximity assay; type: cell membranes
Melanocortin receptor 4 [6] = target: T3, Melanocortin receptor 4; assay: Agonist activity at human melanocortin receptor 4 expressed in human T-REx-293 cells using low doxycycline assessed as stimulation of intracellular cAMP accumulation incubated for 45 mins by LANCE cAMP assay; type: functional, cell-based
Melanocortin receptor 5 = Melanocortin receptor 5 (Homo sapiens, UniProt P33032); assay: Displacement of [125I]-NDP-alpha-MSH from human MC5R expressed in HEK2936E cell membrane measured after 16-23 hrs by 1450 microbeta trilux scintillation proximity assay; type: cell membranes
Chain of Melanocortin receptor 5 (P33032 whole entry): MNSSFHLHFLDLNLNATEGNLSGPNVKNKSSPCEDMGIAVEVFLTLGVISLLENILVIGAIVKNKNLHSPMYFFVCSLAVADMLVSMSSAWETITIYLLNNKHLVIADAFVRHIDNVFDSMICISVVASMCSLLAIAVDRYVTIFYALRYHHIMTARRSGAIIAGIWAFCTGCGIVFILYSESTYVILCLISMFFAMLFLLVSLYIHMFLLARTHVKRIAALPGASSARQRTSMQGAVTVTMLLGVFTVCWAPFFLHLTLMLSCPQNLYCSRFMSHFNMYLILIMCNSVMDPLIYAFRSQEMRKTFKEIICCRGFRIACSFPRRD

Melanocortin receptor 3 [7] = target: T2, Melanocortin receptor 3; assay: Displacement of [125I]-NDP-alpha-MSH from human MC3R expressed in HEK2936E cell membrane measured after 16-23 hrs by 1450 microbeta trilux scintillation proximity assay; type: cell membranes

Row | Structure (SMILES) | EC50 [1] [nM] | EC50 (Melanocortin receptor 3 [2]) [nM] | Ki [3] [nM] | EC50 (Melanocortin receptor 4 [4]) [nM] | Ki (Melanocortin receptor 4 [5]) [nM] | EC50 (Melanocortin receptor 4 [6]) [nM] | IC50 (Melanocortin receptor 5) [nM] | Ki (Melanocortin receptor 3 [7]) [nM]
2 | CC[C@H](C)[C@@H]1NC(=O)[C@@H]2CCCN2C(=O)[C@@H]2CCCN2C(=O)[C@H]([C@@H](C)CC)NC(=O)[C@H](CO)NC(=O)[C@H](C)NC(=O)[C@H]([C@@H](C)O)NC(=O)[C@@H]2CSSC[C@H](NC1=O)C(=O)N[C@@H](Cc1c[nH]cn1)C(=O)N[C@H](Cc1ccccc1)C(=O)N(C)[C@@H](CCCNC(=N)N)C(=O)N(C)[C@@H](Cc1c[nH]c3ccccc13)C(=O)N[C@@H](CCCNC(=N)N)C(=O)N2 (cyclo(CTASIPPICH[dF][NMeR][NMeW]R); disulfide 1-9) | 0.759 | 129 | – | 58.9 | > 1000 | > 1000 | 724 | > 1000
3 | CC[C@H](C)[C@@H]1NC(=O)[C@@H]2CCCN2C(=O)[C@H](Cc2c[nH]c3ccccc23)NC(=O)[C@H](CCCNC(=N)N)N(C)C(=O)[C@@H](Cc2ccccc2)NC(=O)[C@H](Cc2c[nH]cn2)NC(=O)[C@H]([C@@H](C)O)NC(=O)[C@@H]2CSSC[C@H](NC1=O)C(=O)N[C@@H](Cc1c[nH]cn1)C(=O)N[C@H](Cc1ccccc1)C(=O)N[C@@H](CCC(=O)O)C(=O)N[C@@H](Cc1c[nH]c3ccccc13)C(=O)N[C@@H](CCCNC(=N)N)C(=O)N2 | 3.63 | 95.5 | 41.7 | 3.89 | 309 | 105 | 2690 | 5010
4 | CN1C(=O)[C@@H](Cc2ccccc2)NC(=O)[C@H](Cc2c[nH]cn2)NC(=O)CNC(=O)[C@@H]2CSSC[C@H](NC(=O)[C@H](CCCNC(=N)N)NC(=O)[C@@H](CC(=O)O)NC(=O)[C@H](Cc3c[nH]c4ccccc34)NC(=O)[C@@H]1CCCNC(=N)N)C(=O)N[C@@H](Cc1c[nH]cn1)C(=O)N[C@H](Cc1ccccc1)C(=O)N(C)[C@@H](CCCNC(=N)N)C(=O)N(C)[C@@H](Cc1c[nH]c3ccccc13)C(=O)N[C@@H](CCCNC(=N)N)C(=O)N2 | 0.813 | 24 | 4.9 | 10.5 | 158 | 490 | 1510 | 148
5 | CC[C@H](C)[C@@H]1NC(=O)[C@@H]2CCCN2C(=O)[C@H](Cc2c[nH]c3ccccc23)NC(=O)[C@H](CCCNC(=N)N)N(C)C(=O)[C@@H](Cc2ccccc2)NC(=O)[C@H](Cc2c[nH]cn2)NC(=O)[C@H]([C@@H](C)O)NC(=O)[C@@H](NC(C)=O)CSSC[C@@H](C(N)=O)NC1=O | 8.71 | 39.8 | 195 | 2.57 | 347 | 60.3 | 11200 | 3980
6 | CC(=O)N[C@H]1CSSC[C@@H](C(N)=O)NC(=O)[C@H](CCCNC(=N)N)NC(=O)[C@H](Cc2c[nH]c3ccccc23)N(C)C(=O)[C@H](CCCNC(=N)N)N(C)C(=O)[C@H](Cc2ccccc2)NC(=O)[C@H](Cc2c[nH]cn2)NC1=O (Ac-CHF[NMeR][NMeW]RC-NH2; disulfide 1-7) | 5.5 | 398 | 56.2 | 63.1 | 2040 | 3630 | 10000 | 3160

The remaining molecules from weak to strong by EC50 [1], led by results:

Row | EC50 [1] [nM] | EC50 (Melanocortin receptor 3 [2]) [nM] | Ki [3] [nM] | EC50 (Melanocortin receptor 4 [4]) [nM] | Ki (Melanocortin receptor 4 [5]) [nM] | EC50 (Melanocortin receptor 4 [6]) [nM] | IC50 (Melanocortin receptor 5) [nM] | Ki (Melanocortin receptor 3 [7]) [nM] | Structure (SMILES)
7 | 3.63 | 20 | 19.5 | 0.457 | 10.2 | 2.57 | 162 | 380 | CC[C@H](C)[C@@H]1NC(=O)[C@@H]2CCCN2C(=O)[C@H](Cc2c[nH]c3ccccc23)NC(=O)[C@H](CCCNC(=N)N)N(C)C(=O)[C@@H](Cc2ccccc2)NC(=O)[C@H](Cc2c[nH]cn2)NC(=O)[C@H]([C@@H](C)O)NC(=O)[C@@H]2CSSC[C@H](NC1=O)C(=O)N[C@@H](C)C(=O)N[C@H](Cc1ccccc1)C(=O)N[C@@H](CCCNC(=N)N)C(=O)N[C@@H](Cc1c[nH]c3ccccc13)C(=O)N[C@@H](CCCNC(=N)N)C(=O)N2
8 | 1.55 | 13.5 | 9.77 | 1.05 | 7.94 | 31.6 | 204 | 407 | CC[C@H](C)[C@@H]1NC(=O)[C@@H]2CCCN2C(=O)[C@H](Cc2c[nH]c3ccccc23)NC(=O)[C@H](CCCNC(=N)N)N(C)C(=O)[C@@H](Cc2ccc3ccccc3c2)NC(=O)[C@@H]2CCCN2C(=O)[C@H](Cc2c[nH]c3ccccc23)NC(=O)[C@@H]2CSSC[C@H](NC1=O)C(=O)N[C@@H](Cc1c[nH]cn1)C(=O)N[C@H](Cc1ccccc1)C(=O)N[C@@H](CCCNC(=N)N)C(=O)N[C@@H](Cc1c[nH]c3ccccc13)C(=O)N[C@@H](C)C(=O)N2
9 | 1.32 | 15.8 | 3.72 | – | – | – | 129 | 100 | CC[C@H](C)[C@@H]1NC(=O)[C@@H]2CCCN2C(=O)[C@H](Cc2c[nH]c3ccccc23)NC(=O)[C@H](CCCNC(=N)N)N(C)C(=O)[C@@H](Cc2ccc3ccccc3c2)NC(=O)[C@@H]2CCCN2C(=O)[C@@H]2CCCN2C(=O)[C@@H]2CSSC[C@H](NC1=O)C(=O)N[C@@H](Cc1c[nH]cn1)C(=O)N[C@H](Cc1ccccc1)C(=O)N[C@@H](CCCNC(=N)N)C(=O)N[C@@H](Cc1c[nH]c3ccccc13)C(=O)N[C@@H](C)C(=O)N2
10 | 1.07 | 4.07 | 8.13 | – | – | – | 550 | 135 | C[C@@H]1NC(=O)[C@H](Cc2c[nH]c3ccccc23)NC(=O)[C@H](CCCNC(=N)N)NC(=O)[C@@H](Cc2ccccc2)NC(=O)[C@H](Cc2c[nH]cn2)NC(=O)[C@@H]2CSSC[C@H](NC1=O)C(=O)N[C@@H]([C@@H](C)O)C(=O)N[C@@H](Cc1c[nH]cn1)C(=O)N[C@H](Cc1ccccc1)C(=O)N(C)[C@@H](CCCNC(=N)N)C(=O)N[C@@H](Cc1c[nH]c3ccccc13)C(=O)N1CCC[C@H]1C(=O)N[C@@H](C)C(=O)N2
11 | 0.692 | 6.61 | 3.98 | 0.537 | 36.3 | 6.76 | 513 | 302 | C[C@@H]1NC(=O)[C@H](Cc2c[nH]c3ccccc23)NC(=O)[C@H](CCCNC(=N)N)NC(=O)[C@@H](Cc2ccccc2)NC(=O)[C@H](Cc2c[nH]cn2)NC(=O)[C@@H]2CSSC[C@H](NC1=O)C(=O)N[C@@H]([C@@H](C)O)C(=O)N[C@@H](Cc1c[nH]cn1)C(=O)N[C@H](Cc1ccccc1)C(=O)N(C)[C@@H](CCCNC(=N)N)C(=O)N[C@@H](Cc1c[nH]c3ccccc13)C(=O)N1CCC[C@H]1C(=O)N[C@@H](Cc1ccccc1)C(=O)N2
12 | 0.141 | 72.4 | 1.29 | 22.9 | 589 | 398 | 3090 | 1740 | CC[C@H](C)[C@@H]1NC(=O)[C@@H]2CCCN2C(=O)[C@H](Cc2c[nH]c3ccccc23)NC(=O)[C@H](CCC(=O)O)NC(=O)[C@@H](Cc2ccccc2)NC(=O)[C@H](Cc2c[nH]cn2)NC(=O)[C@H]([C@@H](C)O)NC(=O)[C@@H]2CSSC[C@H](NC1=O)C(=O)N[C@@H](Cc1c[nH]cn1)C(=O)N[C@H](Cc1ccccc1)C(=O)N(C)[C@@H](CCCNC(=N)N)C(=O)N(C)[C@@H](Cc1c[nH]c3ccccc13)C(=O)N[C@@H](CCCNC(=N)N)C(=O)N2
13 | 0.138 | 17.4 | 1.48 | – | – | – | 174 | 269 | CC[C@H](C)[C@@H]1NC(=O)[C@@H]2CCCN2C(=O)[C@H](Cc2c[nH]c3ccccc23)NC(=O)[C@H](CCCNC(=N)N)NC(=O)[C@@H](Cc2ccccc2)NC(=O)[C@H](Cc2c[nH]cn2)NC(=O)[C@H]([C@@H](C)O)NC(=O)[C@@H]2CSSC[C@H](NC1=O)C(=O)N[C@@H](Cc1c[nH]cn1)C(=O)N[C@H](Cc1ccccc1)C(=O)N[C@@H](CCCNC(=N)N)C(=O)N[C@@H](Cc1c[nH]c3ccccc13)C(=O)N[C@@H](CCCNC(=N)N)C(=O)N2
14 | 0.135 | 7.76 | 1.12 | – | – | – | 174 | 389 | CC[C@H](C)[C@@H]1NC(=O)[C@@H]2CCCN2C(=O)[C@H](Cc2c[nH]c3ccccc23)NC(=O)[C@H](CCCNC(=N)N)N(C)C(=O)[C@@H](Cc2ccccc2)NC(=O)[C@H](Cc2c[nH]cn2)NC(=O)[C@H]([C@@H](C)O)NC(=O)[C@@H]2CSSC[C@H](NC1=O)C(=O)N[C@@H](Cc1c[nH]cn1)C(=O)N[C@H](Cc1ccccc1)C(=O)N[C@@H](CCCNC(=N)N)C(=O)N[C@@H](Cc1c[nH]c3ccccc13)C(=O)N[C@@H](CCCNC(=N)N)C(=O)N2
15 | 0.0912 | 1.15 | 1.41 | 0.132 | 25.7 | 1.23 | 170 | 107 | CC[C@H](C)[C@@H]1NC(=O)[C@H](C)NC(=O)[C@H](Cc2c[nH]c3ccccc23)NC(=O)[C@H](CCCNC(=N)N)N(C)C(=O)[C@@H](Cc2ccccc2)NC(=O)[C@H](Cc2c[nH]cn2)NC(=O)[C@H]([C@@H](C)O)NC(=O)[C@@H]2CSSC[C@H](NC1=O)C(=O)N[C@@H](Cc1c[nH]cn1)C(=O)N[C@H](Cc1ccccc1)C(=O)N[C@@H](CCCNC(=N)N)C(=O)N[C@@H](Cc1c[nH]c3ccccc13)C(=O)N[C@@H](C)C(=O)N2
